The target in this experiment is T1, Cholesterol Epoxide Hydrolase (ChEH) (Homo sapiens, UniProt Q15125+Q9UBM7).
T1 construct: endogenous in cells; host or cells: MCF-7
The experiment in a line: Cholesterol Epoxide Hydrolase (ChEH) activity in MCF-7 cells, [14C]5,6α-EC metabolism by TLC. The note with it: 1 μM, 24 h, [14C]5,6α-EC 0.6 μM. Type of experiment: cell-based. An excerpt: The compounds 5,6α-epoxycholesterol (5,6α-EC) and 5,6p-epoxycholesterol (5,6p-EC) are oxysterols involved in the anticancer pharmacology of tamoxifen, a widely used antitumor drug. Both are metabolized to cholestane-3β,5α,6β-triol (CT) by the enzyme cholesterol-5,6-epoxide hydrolase (ChEH), and CT is metabolized by the enzyme HSD11B2 (11β-hydroxysteroid dehydrogenase 2) to 6-oxocholestane-3β,5α-diol (OCDO), a tumor-promoting oncosterone.
MCF-7 cells are in a cell culture medium identical to that of Example 5 and are seeded in 6-well plates at 150 000 cells per well with three wells per treatment condition. […] Tamoxifen is used as a positive control for 3α-fluoro-5α-hydroxy-6β-[2-(1H-imidazol-4-yl)ethylamino]cholestane and 5α-hydroxy-6β-[2-(1H-imidazol-4-yl)ethylamino]cholestan-3β-ol (1 μM for all molecules).
After 24 hours of treatment, the media are collected and lipid extracts are prepared from the cell pellets by extraction with 100 μL of chloroform, 400 μL of methanol, and 300 μL of water.
The lipid extracts are analyzed by thin layer chromatography (TLC) using ethyl acetate (EtOAc) as eluent. The analysis is performed with a plate reader and then by autoradiography.

The source of these data is patent publication US20230391817A1, “5ALPHA-HYDROXY-6BETA-[2-(1-H-IMIDAZOL-4-YL)-ETHYLAMINO]-CHOLESTAN-3BETA-OL ANALOGUES AND PHARMACEUTICAL COMPOSITIONS COMPRISING SAME FOR USE IN THE TREATMENT OF CANCER” (priority 2020, published 2023).

SMILES strings stand for the structures.

T1 sequence (Q15125 whole entry): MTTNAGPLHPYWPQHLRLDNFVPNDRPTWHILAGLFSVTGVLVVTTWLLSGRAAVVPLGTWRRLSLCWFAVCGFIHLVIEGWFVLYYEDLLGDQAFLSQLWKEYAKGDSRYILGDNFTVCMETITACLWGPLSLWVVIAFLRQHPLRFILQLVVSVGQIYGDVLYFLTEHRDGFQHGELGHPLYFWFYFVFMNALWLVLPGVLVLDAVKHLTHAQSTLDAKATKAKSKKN
T1 sequence (Q9UBM7 whole entry): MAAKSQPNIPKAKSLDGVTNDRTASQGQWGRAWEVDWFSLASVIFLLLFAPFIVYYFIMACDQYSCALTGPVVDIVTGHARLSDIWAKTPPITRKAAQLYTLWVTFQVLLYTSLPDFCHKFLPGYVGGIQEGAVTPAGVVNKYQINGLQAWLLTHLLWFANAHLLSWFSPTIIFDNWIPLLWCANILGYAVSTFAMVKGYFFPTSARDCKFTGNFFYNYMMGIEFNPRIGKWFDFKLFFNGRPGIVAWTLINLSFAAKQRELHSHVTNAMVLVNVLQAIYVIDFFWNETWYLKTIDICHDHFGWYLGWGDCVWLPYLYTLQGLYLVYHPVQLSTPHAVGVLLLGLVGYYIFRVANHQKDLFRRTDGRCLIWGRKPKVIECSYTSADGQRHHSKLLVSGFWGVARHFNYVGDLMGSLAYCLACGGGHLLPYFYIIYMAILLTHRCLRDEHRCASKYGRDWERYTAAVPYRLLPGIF

`CC(C)CCC[C@@H](C)[C@H]1CC[C@H]2[C@@H]3C[C@@H](NCCc4c[nH]cn4)[C@@]4(O)C[C@@H](F)CC[C@]4(C)[C@H]3CC[C@]12C` [DX111, 3β-fluoro-5α-hydroxy-6β-[2-(1H-imidazol-4-yl)ethylamino]cholestane]: the “inhibition of ChEH activity” value was “almost total inhibition”.
